In US7718808B2, “Thiazole derivatives” (Kyowa Hakko Kirin Co., Ltd., priority 2003, dated 2010) one finds melting point data, which are given here for 37 molecules.

For the molecule `Cn1nnc2ccc(C(=O)Nc3nc(-c4ccco4)c(C(=O)c4ccccn4)s3)cc21` [Compound 245, N-[4-(2-Furyl)-5-(pyridin-2-ylcarbonyl)thiazol-2-yl]-1-methyl-1H-benzotriazole-6-carboxamide], the melting point (usually the temperature of the solid-liquid transition) lay within 230 to 231 °C. Under `CC(O)c1cc2cc(C(=O)Nc3nc(-c4ccco4)c(C(=O)c4ccccn4)s3)ccc2o1` (stereo not shown) [Compound 246, N-[4-(2-Furyl)-5-(pyridin-2-ylcarbonyl)thiazol-2-yl]-2-(1-hydroxyethyl)-1-benzofuran-5-carboxamide] stands 246 to 249 °C. The molecule `CC(C)(O)c1cc2cc(C(=O)Nc3nc(-c4ccco4)c(C(=O)c4ccccn4)s3)ccc2o1` [Compound 247, N-[4-(2-Furyl)-5-(pyridin-2-ylcarbonyl)thiazol-2-yl]-2-(1-hydroxy-1-methylethyl)-1-benzofuran-5-carboxamide] yielded a melting point of 230 to 231 °C. The molecule `O=C(Nc1nc(-c2ccco2)c(C(=O)c2ccccn2)s1)c1cnc2occc2c1` [Compound 248, N-[4-(2-Furyl)-5-(pyridin-2-ylcarbonyl)thiazol-2-yl]furo[2,3-b]pyridine-5-carboxamide] displayed a melting point of 234 to 235 °C. Under `CCOC(=O)Nc1nc(-c2ccco2)c(C(=O)c2ccccn2)s1` [Compound 250, Ethyl N-[4-(2-furyl)-5-(pyridin-2-ylcarbonyl)thiazol-2-yl]carbamate] stands 158 to 159 °C; under `O=C(Nc1nc(-c2ccco2)c(C(=O)c2ccccn2)s1)OC1CCC1` [Compound 251, Cyclobutyl N-[4-(2-furyl)-5-(pyridin-2-ylcarbonyl)thiazol-2-yl]carbamate], 152 to 153 °C. `O=C(Nc1nc(-c2ccco2)c(C(=O)c2ccccn2)s1)OC1CCCC1` [Compound 252, Cyclopentyl N-[4-(2-furyl)-5-(pyridin-2-ylcarbonyl)thiazol-2-yl]carbamate]: the melting point lay within 162 to 163 °C. For `O=C(Nc1nc(-c2ccco2)c(C(=O)c2ccccn2)s1)OC1CCOCC1` [Compound 253, 4-Tetrahydropyranyl N-[4-(2-furyl)-5-(pyridin-2-ylcarbonyl)thiazol-2-yl]carbamate] the value was 144 to 145 °C; for `CN1CCC(OC(=O)Nc2nc(-c3ccco3)c(C(=O)c3ccccn3)s2)CC1` [Compound 254, 1-Methylpiperidin-4-yl N-[4-(2-furyl)-5-(pyridin-2-ylcarbonyl)thiazol-2-yl]carbamate], 222 to 225 °C.

For the molecule `O=C(Nc1nc(-c2ccco2)c(C(=O)c2ccccn2)s1)OC(CF)CF` [Compound 255, 2-Fluoro-1-(fluoromethyl)ethyl N-[4-(2-furyl)-5-(pyridin-2-ylcarbonyl)thiazol-2-yl]carbamate], the melting point lay in the range of 158 to 159 °C. The molecule `O=C(c1ccccn1)c1sc(NC(=O)N2CCOCC2)nc1-c1ccco1` [Compound 256, N-[4-(2-Furyl)-5-(pyridin-2-ylcarbonyl)thiazol-2-yl]morpholine-4-carboxamide] came in with a melting point of 144 to 145 °C. For `O=C(c1ccccn1)c1sc(NC(=O)N2CCCCC2)nc1-c1ccco1` [Compound 257, N-[4-(2-Furyl)-5-(pyridin-2-ylcarbonyl)thiazol-2-yl]piperidine-1-carboxamide] the value was 182 to 185 °C; for `CC(C)NC(=O)Nc1nc(-c2ccco2)c(C(=O)c2ccccn2)s1` [Compound 258, N-[4-(2-Furyl)-5-(pyridin-2-ylcarbonyl)thiazol-2-yl]-N′-isopropylurea], 182 to 186 °C.

In the case of `COCCNC(=O)Nc1nc(-c2ccco2)c(C(=O)c2ccccn2)s1` [Compound 260, N-[4-(2-Furyl)-5-(pyridin-2-ylcarbonyl)thiazol-2-yl]-N′-(2-methoxyethyl)urea], the melting point fell in the range of 150 to 151 °C. Turning to `COCCCNC(=O)Nc1nc(-c2ccco2)c(C(=O)c2ccccn2)s1` [Compound 261, N-[4-(2-Furyl)-5-(pyridin-2-ylcarbonyl)thiazol-2-yl]-N′-(3-methoxypropyl)urea], the melting point lay within 169 to 170 °C. For the molecule `O=C(CCl)Nc1nc(-c2ccco2)c(C(=O)c2ccccn2)s1` [Compound 262, 2-Chloro-N-[4-(2-furyl)-5-(pyridin-2-ylcarbonyl)thiazol-2-yl]acetamide], the melting point was 184 to 185 °C. For `O=C(CN1CCOCC1)Nc1nc(-c2ccco2)c(C(=O)c2ccccn2)s1` [Compound 264, N-[4-(2-Furyl)-5-(pyridin-2-ylcarbonyl)thiazol-2-yl]morpholinoacetamide] the value was 170 to 171 °C. Under `C[C@@H]1CN(CC(=O)Nc2nc(-c3ccco3)c(C(=O)c3ccccn3)s2)C[C@H](C)O1` [Compound 265, 2-(cis-2,6-Dimethylmorpholino)-N-[4-(2-furyl)-5-(pyridin-2-ylcarbonyl)thiazol-2-yl]acetamide] stands 188 to 191 °C; under `CC1CCN(CC(=O)Nc2nc(-c3ccco3)c(C(=O)c3ccccn3)s2)CC1` [Compound 266, N-[4-(2-Furyl)-5-(pyridin-2-ylcarbonyl)thiazol-2-yl]-2-(4-methylpiperidino)acetamide], 104 to 106 °C; under `O=C(CN1CCC2(CC1)OCCO2)Nc1nc(-c2ccco2)c(C(=O)c2ccccn2)s1` [Compound 269, 2-(1,4-Dioxa-8-azaspiro[4.5]decan-8-yl)-N-[4-(2-furyl)-5-(pyridin-2-ylcarbonyl)thiazol-2-yl]acetamide], 188 to 204 °C. Take `O=C(CN1CCC(N2CCCCC2)CC1)Nc1nc(-c2ccco2)c(C(=O)c2ccccn2)s1` [Compound 270, N-[4-(2-Furyl)-5-(pyridin-2-ylcarbonyl)thiazol-2-yl]-2-(4-piperidinopiperidino)acetamide]: the melting point is 214 to 220 °C (dec.).

`O=C(CN1CCC(N2CCOCC2)CC1)Nc1nc(-c2ccco2)c(C(=O)c2ccccn2)s1` [Compound 271, N-[4-(2-Furyl)-5-(pyridin-2-ylcarbonyl)thiazol-2-yl]-2-(4-morpholinopiperidino)acetamide]: the melting point fell in the range of 149 to 150 °C. `CN1CCN(CC(=O)Nc2nc(-c3ccco3)c(C(=O)c3ccccn3)s2)CC1` [Compound 272, N-[4-(2-Furyl)-5-(pyridin-2-ylcarbonyl)thiazol-2-yl]-2-(4-methylpiperazin-1-yl)acetamide] displayed a melting point of 136 to 145 °C. For `CCN1CCN(CC(=O)Nc2nc(-c3ccco3)c(C(=O)c3ccccn3)s2)CC1` [Compound 273, 2-(4-Ethylpiperazin-1-yl)-N-[4-(2-furyl)-5-(pyridin-2-ylcarbonyl)thiazol-2-yl]acetamide] the value was 142 to 144 °C. For the molecule `CC(C)N1CCN(CC(=O)Nc2nc(-c3ccco3)c(C(=O)c3ccccn3)s2)CC1` [Compound 274, N-[4-(2-Furyl)-5-(pyridin-2-ylcarbonyl)thiazol-2-yl]-2-(4-isopropylpiperazin-1-yl)acetamide], the melting point is 154 to 155 °C. For `CC(=O)N1CCN(CC(=O)Nc2nc(-c3ccco3)c(C(=O)c3ccccn3)s2)CC1` [Compound 275, 2-(4-Acetylpiperazin-1-yl)-N-[4-(2-furyl)-5-(pyridin-2-ylcarbonyl)thiazol-2-yl]acetamide] the value was 170 to 171 °C.

Take `O=C(CN1CCN(c2ccccc2)CC1)Nc1nc(-c2ccco2)c(C(=O)c2ccccn2)s1` [Compound 276, N-[4-(2-Furyl)-5-(pyridin-2-ylcarbonyl)thiazol-2-yl]-2-(4-phenylpiperazin-1-yl)acetamide]: the melting point was in the range of 203 to 204 °C. Under `O=C(CN1CCN(c2ccccn2)CC1)Nc1nc(-c2ccco2)c(C(=O)c2ccccn2)s1` [Compound 277, N-[4-(2-Furyl)-5-(pyridin-2-ylcarbonyl)thiazol-2-yl]-2-[4-(2-pyridyl)piperazin-1-yl]acetamide] stands 215 to 218 °C.

Turning to `O=C(CN1CCN(c2ncccn2)CC1)Nc1nc(-c2ccco2)c(C(=O)c2ccccn2)s1` [Compound 278, N-[4-(2-Furyl)-5-(pyridin-2-ylcarbonyl)thiazol-2-yl]-2-[4-(2-pyrimidinyl)piperazin-1-yl]acetamide], the melting point was in the range of 199 to 200 °C. Molecule `O=C(CN1CCN(C2CCOCC2)CC1)Nc1nc(-c2ccco2)c(C(=O)c2ccccn2)s1` [Compound 279, N-[4-(2-Furyl)-5-(pyridin-2-ylcarbonyl)thiazol-2-yl]-2-[4-(tetrahydropyran-4-yl)piperazin-1-yl]acetamide] returned a melting point of 172 to 188 °C. For `O=C(CN1CCSC1)Nc1nc(-c2ccco2)c(C(=O)c2ccccn2)s1` [Compound 281, N-[4-(2-Furyl)-5-(pyridin-2-ylcarbonyl)thiazol-2-yl]-2-(1,3-thiazolidin-3-yl)acetamide] the value was 153 to 155 °C; for `O=C(CN1CCSCC1)Nc1nc(-c2ccco2)c(C(=O)c2ccccn2)s1` [Compound 282, N-[4-(2-Furyl)-5-(pyridin-2-ylcarbonyl)thiazol-2-yl]-2-thiomorpholinoacetamide], 148 to 149 °C; for `COc1cccc(C(=O)c2sc(NC(=O)c3ccncc3)nc2-c2ccco2)n1` [Compound 283, N-[4-(2-Furyl)-5-(6-methoxypyridin-2-ylcarbonyl)thiazol-2-yl]pyridine-4-carboxamide], 247 to 250 °C. Under `Cc1cccc(C(=O)c2sc(NC(=O)c3ccncc3)nc2-c2ccco2)n1` [Compound 284, N-[4-(2-Furyl)-5-(6-methylpyridin-2-ylcarbonyl)thiazol-2-yl]pyridine-4-carboxamide] stands 238 to 241 °C; under `Cc1ccc(C(=O)c2sc(NC(=O)c3ccncc3)nc2-c2ccco2)nc1` [Compound 294, N-[4-(2-Furyl)-5-(5-methylpyridin-2-ylcarbonyl)thiazol-2-yl]pyridine-4-carboxamide], 255 to 257 °C. The molecule `Cc1ccnc(C(=O)c2sc(NC(=O)c3ccncc3)nc2-c2ccco2)c1` [Compound 295, N-[4-(2-Furyl)-5-(4-methylpyridin-2-ylcarbonyl)thiazol-2-yl]pyridine-4-carboxamide] displayed a melting point of 240 to 245 °C. For `O=C(Nc1nc(-c2ccco2)c(C(=O)c2cccnc2)s1)c1ccncc1` [Compound 304, N-[4-(2-Furyl)-5-(pyridin-3-ylcarbonyl)thiazol-2-yl]pyridine-4-carboxamide] the value was 245 to 248 °C.
